The source of these data is patent US20170049843A1, “Hepatocyte Growth Factor Mimics as Therapeutic Agents” (WASHINGTON STATE UNIVERSITY, priority 2011, published 2017).

Type in all cases: cell-based, rat
For test [1], the system named is hippocampal neurons. Briefly: Whole-cell recordings of mEPSCs in dissociated hippocampal neurons. As to conditions: 5 days. Further details: mean mEPSC frequency: unit not given beside the values.
Test [2] concerns hippocampal neurons. The experiment in a line: Immunocytochemistry: correlation of spines to synaptic markers (VGLUT1, Synapsin, PSD-95). As to conditions: 5 days; for Number of spines/50 μm (PSD-95 staining experiment) / Number of spines/50 μm (Synapsin staining experiment) / Number of spines/50 μm (VGLUT1 staining experiment): 10^−12 M, N=25. As to the method:
(§1) Transfected neurons were treated, fixed and stained. Briefly, cells were permeablized with 0.1% Triton X-100 detergent (Bio-Rad; Hercules, Calif.) for 10 minutes. An 8% bovine serum albumin (Intergen Company; Burlington, Mass.) in PBS was used to prevent non-specific binding for one hour at R.T.; Primary antibody incubations were at a 1:2500 dilution (see below) in 1% BSA in PBS at 4° C. overnight. Secondary antibody, 1:3000 Alexafluor 488 goat-anti-mouse (Invitrogen: Carlsbad, Calif.) was applied for two hours at room temperature. Coverslips were mounted with ProLong Gold anti-fade reagent (Invitrogen; Carlsbad, Calif.) and all washes were done with PBS. Imaging and analysis were performed as described above. For presynaptic excitatory transmission the VGLUT1 (Synaptic Systems, Goettingen, Germany) marker (Balschun, Moechars et al.) was employed and for general presynaptic transmission synapsinl (Synaptic Systems, Goettingen, Germany) (Ferreira and Rapoport 2002) was applied. A postsynaptic function was established by PSD-95 (Milipore, Billerica, Mass.) (El-Husseini, Schnell et al. 2000). In each instance the total number of spines was counted for the treatment groups, control, Nle1-AngIV and Dihexa, to ensure an active phenotype. The total number of actin enriched spines adjacent to VGLUT1 or Synapsin were counted and converted to a percentage as the percent correlation of treatment-induced spines to presynaptic markers is a strong indicator of ability to transmit excitatory signals.
as §1, with “fixed and stained as previously described in Chapter two. Briefly, cells” for “fixed and stained. Briefly, cells”, “enriched spines (red) adjacent to” for “enriched spines adjacent to”

The test system of the next test is c-Met receptor. Briefly: Spinogenesis after c-Met knock-down with shRNA. As to conditions: 10 ng/ml HGF or 10^−12 M analog. The source says:
Neurons were transfected with mRFP-β-actin on day in vitro 6 (DIV6) using LipofectAMINE™ 2000 (Invitrogen) according to the manufacturer's protocol. This protocol yielded the desired 3-5% transfection efficiency thus enabling the visualization of individual neurons. Higher efficiencies obscured the dendritic arbor of individual neurons. Expression of fluorescently tagged actin allowed clear visualization of dendritic spines, as dendritic spines are enriched in actin. On DIV7 the cells were treated with vehicle (H20) or peptides (as described in the text) added to media. On DIV12 the neurons were fixed (4% paraformaldehyde, 3% sucrose, 60 mM PIPES, 25 mM HEPES, 5 mM EGTA, 1 mM MgCl2, pH 7.4) for 20 min at room temperature and mounted. Slides were dried for at least 20 hours at 4° C. and fluorescent images were obtained with Slidebook 4.2 Digital Microscopy Software driving an Olympus IX81 inverted confocal microscope with a 60× oil immersion lens, NA 1.4 and resolution 0.280 μm Dendritic spine density was measured on primary and secondary dendrites at a distance of at least 150 μm from the soma. Five 50 μm long segments of dendrite from at least 10 neurons per data point were analyzed for each data point reported. Each experiment was repeated at least three times using independent culture preparations. Dendrite length was determined using the National Institutes of Health's Image J 1.41o program (NIH, Bethesda, Md.) and the neurite tracing program Neuron J (Meijering, Jacob et al. 2004) Spines were manually counted.
A target sequence for c-Met was designed using RNAi central design program (see the website located at cancan.cshl.edu/). […]. The shRNA was transfected into cells using the lipofectamine method described above. Verification of receptor knockdown was done by creating a c-Met-6-Myc tagged gene product using the Gateway cloning system (Invitrogen). The Met protein coding sequence was cloned from rat whole brain cDNA using primers obtained from Integrated DNA Technologies, Inc. The amplified product was gel purified and a band corresponding to […] band excised and cloned into a PCAGGS-6-Myc destination vector (Gateway).
To irrefutably confirm that the AngIV analogues act via the HGF/c-met system an shRNA for c-Met was employed to knock-down the receptor. Dissociated hippocampal neurons were transfected with mRFP-β-actin and shMet RNA and receptor knock-down was allowed to take place for 48 hours prior to stimulating with 0.5 μg (per well) HGF (10 ng/ml), Dihexa or Nle1-AngIV (both at 10^−12 M). Longer exposure appeared to be detrimental or toxic to the neurons. Effective c-Met receptor knock-down was verified by transfecting human embryonic kidney (HEK) cells with (0.1 μg) 6-Myc-tagged c-Met, (0.1 μg)shMet or mRFP-β-actin alone. Successful knockdown was confirmed by immunoblotting for Myc tagged c-met using an anti-Myc antibody (FIG. 19).

Setting [3] is: 10^−12 M Dihexa or 10 ng/ml HGF, control 3.55±0.60.
Setting [4] is: Hinge 10^−12 M, HGF 10 ng/ml, Dihexa 10^−12 M, alone or combined, vehicle 5.31±0.35.
Where [5] appears, read: neurons transfected with mRFP-β-actin alone, 48 hours, control 13.2.
The mark [6] stands for this setting: neurons transfected with mRFP-β-actin and shMet, control 13.5.

Where a SMILES comes first, the peptide text is derived from it. [ ]: non-standard residue; d: D form. The star is where a group is joined. Nle = CCCC[C@H](N)C(=O)O; Hexanoyl = CCCCCC(=O)*; Ahx = NCCCCCC(=O)O

As for `CCCCCC(=O)N[C@@H](Cc1ccc(O)cc1)C(=O)N[C@H](C(=O)NCCCCCC(N)=O)[C@@H](C)CC` [Dihexa, N-hexanoic-Tyr-Ile-(6)-aminohexanoic amide] (Hexanoyl-Tyr-Ile-[Ahx]-NH2), in the test on hippocampal neurons [1] (setting [3]), the “mean mEPSC frequency” value was 6.75±0.99. In the test with hippocampal neurons [1] (setting [4]), the “mean mEPSC frequency” value was 8.25±0.56. Also, in the test with hippocampal neurons [2], the “Number of spines/50 μm (PSD-95 staining experiment)” value was 43 spines/50 μm, the “Number of spines/50 μm (Synapsin staining experiment)” value is on record as 37 spines/50 μm and the “Number of spines/50 μm (VGLUT1 staining experiment)” value stood at 44 spines/50 μm. For the same molecule, the “mean spine numbers per 50 μm dendrite length” value with c-Met receptor (setting [5]) was 21.8. Also, in the test with c-Met receptor (setting [6]), the “mean spine numbers per 50 μm dendrite length” value is listed as 12.0.
For the molecule `CCCC[C@H](N)C(=O)N[C@@H](Cc1ccc(O)cc1)C(=O)N[C@H](C(=O)N[C@@H](Cc1c[nH]cn1)C(=O)N1CCC[C@H]1C(=O)N[C@@H](Cc1ccccc1)C(=O)O)[C@@H](C)CC` [Nle1-AngIV, reference compound] (H-[Nle]YIHPF-OH; N-terminus and C-terminus assumed), the “mean frequency of AMPA-mediated mEPSCs” value in the test on hippocampal neurons [1] (10-12 M, vehicle 3.06±0.23 Hz) is given as 5.27±0.43 Hz. For the same molecule, in the test on hippocampal neurons [2], the “Number of spines/50 μm (PSD-95 staining experiment)” value is given as 36 spines/50 μm, the “Number of spines/50 μm (Synapsin staining experiment)” value was determined as 31 spines/50 μm and the “Number of spines/50 μm (VGLUT1 staining experiment)” value was 39 spines/50 μm. Further, the “mean spine numbers per 50 μm dendrite length” value in the test with c-Met receptor (setting [5]) amounted to 20.0. Moreover, the “mean spine numbers per 50 μm dendrite length” value in the test on c-Met receptor (setting [6]) amounted to 12.1.
Take “HGF: recombinant hepatocyte growth factor (R&D Systems), ligand of c-Met”: the figures for the “mean mEPSC frequency” value with hippocampal neurons [1] (setting [3]) and with hippocampal neurons [1] (setting [4]) were 7.09±0.53 and 9.66±0.20, respectively. Moreover, the “correlation between presynaptic marker Synapsin and postsynaptic spines” value in the test with hippocampal neurons [2] (HGF 10 ng/ml, vehicle 94%) was found to be 98%. In addition, the results for the “mean spine numbers per 50 μm dendrite length” value in the test on c-Met receptor (setting [5]) and in the test on c-Met receptor (setting [6]) were 20.6 and 12.4, respectively.
